Consider one molecule from patent US20240189275A1, “METHODS FOR TREATING NON-ALCOHOLIC STEATOHEPATITIS WITH A SCD-1 INHIBITOR” (Lipidio Pharmaceuticals, Inc., priority 2021, published 2024).

SMILES strings stand for the structures.

Assay [1] concerns the target T1, rat SCD-1 (Rattus norvegicus, UniProt P07308).
T1 construct: Rat liver microsomes (RLM, BiolVT); tissue BiolVT; host or cells: rat liver microsomes
T1 sequence (P07308 1-358): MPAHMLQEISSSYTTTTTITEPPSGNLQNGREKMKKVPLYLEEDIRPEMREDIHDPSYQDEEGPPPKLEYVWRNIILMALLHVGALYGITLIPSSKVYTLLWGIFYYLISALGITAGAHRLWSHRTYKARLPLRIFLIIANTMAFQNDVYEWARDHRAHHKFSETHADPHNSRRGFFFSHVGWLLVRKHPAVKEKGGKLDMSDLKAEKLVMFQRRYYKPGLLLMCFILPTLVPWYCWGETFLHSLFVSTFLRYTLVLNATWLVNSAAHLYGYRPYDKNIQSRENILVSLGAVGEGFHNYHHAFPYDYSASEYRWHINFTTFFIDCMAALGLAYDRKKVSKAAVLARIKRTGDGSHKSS
The experiment in a line: Inhibition of SCD-1 activity in rat liver microsomes (13C-stearoyl-CoA to 13C-oleoyl-CoA, LC/MS/MS). The format is biochemical. To be noted: FIG. 1, IC50 value not given. The method, then:
(§1) The ability of the compound to inhibit isolated SCD-1 enzyme activity can be evaluated in rat and human microsomes as described below (Oncotarget (2018), 9, 3-20). The compound is added as various concentrations to the liver microsomes and incubated for 5 minutes with ^13C-labelled Stearoyl CoA, which is the substrate for SCD-1. The activity of SCD-1 is then determined by the conversion of ^13C-Steoryl CoA to ^13C-Oleoyl CoA using an LC/MS/MS method. The ability of the compound to inhibit SCD-1 activity is expressed as an IC50.
(§2) Compound 25 is dissolved in DMSO to prepare a 10 mM stock solution.
(§3) Rat liver microsomes (RLM, BiolVT) and human liver microsome (HLM, InVitroCYP™ H-class, Pool of 25 donors BiolVT) solutions are prepared by adding the microsomes to 100 mM sodium phosphate, pH 7.4, at a protein concentration of 1.00 mg/mL.
(§4) Compound 25 stock solution is then added to the RLM and HLM solution at an initial concentration of 0.2 μM for direct inhibition. Each LM/Inhibitor Solution is added to blank LM solution to give 8 concentrations prepared by a 3-fold serial dilution. These diluted LM/inhibitor solutions are then added to a reaction buffer containing 2 mM NADH, 120 μM Coenzyme A, 2 mM ATP, 2 mM DTT, and 10 mM MgCl2 in 100 mM sodium phosphate, pH 7.4.
(§5) A Stearoyl-^13Cis-CoA solution in 10% methanol in water is prepared at a final concentration of 3.00 mM. […]

Assay [2] has as its target T2, human SCD-1 (Homo sapiens, UniProt O00767).
T2 construct: human liver microsome (HLM, InVitroCYP™ H-class, Pool of 25 donors BiolVT); tissue BiolVT InVitroCYP™ H-class; host or cells: human liver microsomes, pool of 25 donors
T2 sequence (O00767 1-359): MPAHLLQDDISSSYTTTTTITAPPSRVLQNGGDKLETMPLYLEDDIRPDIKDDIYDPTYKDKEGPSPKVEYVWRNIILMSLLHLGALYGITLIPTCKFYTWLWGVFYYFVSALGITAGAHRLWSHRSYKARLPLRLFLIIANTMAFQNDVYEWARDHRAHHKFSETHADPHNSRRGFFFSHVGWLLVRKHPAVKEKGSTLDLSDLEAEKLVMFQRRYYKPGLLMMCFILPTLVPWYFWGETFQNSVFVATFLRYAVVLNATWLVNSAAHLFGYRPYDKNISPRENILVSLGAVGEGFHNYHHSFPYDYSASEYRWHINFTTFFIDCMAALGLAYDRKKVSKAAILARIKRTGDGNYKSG
Put plainly: Inhibition of SCD-1 activity in human liver microsomes (13C-stearoyl-CoA to 13C-oleoyl-CoA, LC/MS/MS). The format is biochemical. To be noted: FIG. 1, IC50 value not given. The method, then: as §1, §2, §3, §4, §5

With `O=C(COc1ccc(CO)cc1)N1CC[C@H](Oc2ccccc2C(F)(F)F)C1` [Compound 25, (S)-2-(4-(hydroxymethyl)phenoxy)-1-(3-(2-(trifluoromethyl)phenoxy)pyrrolidin-1-yl)ethan-1-one], the “inhibition of rat SCD-1 activity” value in assay [1] is given as “concentration-dependent inhibition”. Also, the “inhibition of human SCD-1 activity” value in assay [2] is on record as “concentration-dependent inhibition”.
